Measurements taken from patent publication US11420970B1 (NOVARTIS AG, priority 2019, dated 2022).

Biological target: NSD2 [1-1365] (Homo sapiens (Human), UniProt O96028)
Assay: LC-MS/MS-based NSD2 enzymatic assay (SAH production)
Type: biochemical
Conditions: NSD2 biochemical activity, class symbols; read-out: NSD2 IC50
Method: LC-MS/MS-Based NSD2 Enzymatic Assay
This assay employed LC-MS/MS technology to monitor the SAH production from the NSD2 enzymatic reaction. The enzymatic reaction was performed in white proxiplate plus 384-well microplate (Perkin Elmer). The reaction mixture (10 μL) were composed of 8 nM NSD2 [1-1365], […] SAM (USB, 10601) and 400 nM nucleosome (purified from mouse liver) in reaction buffer (20 mM Tris-HCl, pH at 8.0, 0.01% Tween 20, 10 mM MgCl2, 50 mM NaCl, 1 mM DTT, 1 mM TCEP (pH7.5)). After 90 min incubation at room temperature, 3 μL quenching solution containing 2.5% TFA with 320 nM d4-SAH was added to stop the reaction.
For the inhibition assay, compound solutions were transferred into the wells by Mosquito™ (TTP LabTech). The inhibition assays were carried out by preincubating various concentrations of the inhibitor with 5 uL reaction mixture containing 16 nM NSD2 [1-1365] and 2 uM SAM (USB, 10601) in reaction buffer. After 20 min preincubation, 5 uL solution containing 800 nM nucleosome (purified from mouse liver) in reaction buffer was added to initiate the reaction. The reaction was stopped by 3 μL quenching solution containing 2.5% TFA with 320 nM d4-SAH after 90 min.
The SAH production from the enzymatic assays were monitored by LC-MS/MS on an API 4000 triple quadrupole mass spec with Turbolon Spray (Applied Biosystem) coupled with Prominenece UFLC(Shimazu). Liquid chromatography was performed on a Chromolith FastGradient HPLC column (RP-18e, 25-2 mm, from Merck) at a flow rate of 0.8 ml/min. The column was connected directly to the turbo ion electrospray operating in the positive-ion mode. Mobile phase A is 0.1% FA and 2% methanol in water and mobile phase B is 0.1% FA in ACN. Injection volume was 3 μl and the autosampler was kept at 4 degree. SAH and d4-SAH were simultaneously monitored. Data were acquired and processed by Analyst software.
To quantify the formed SAH, d4-SAH was added as internal standard (IS). A series of SAH (Sigma, A9384) solution at varying concentration (1-500 nM in reaction buffer) was mixed with quenching solution mentioned above. Then LC-MS/MS was carried out on API 4000 LC/MS/MS system to detect both SAH and d4-SAH. The plot of SAH peak area/IS peak area vs SAH concentration was used to generate the normalization factor of SAH. The SAH production from real enzymatic reaction was derived from the standard curve of SAH. The down-limit of our system for the detection of SAH is around 1-2 nM, and the linear range can reach up to 500 nM.

NSD2 [1-1365], sequence (O96028 whole entry): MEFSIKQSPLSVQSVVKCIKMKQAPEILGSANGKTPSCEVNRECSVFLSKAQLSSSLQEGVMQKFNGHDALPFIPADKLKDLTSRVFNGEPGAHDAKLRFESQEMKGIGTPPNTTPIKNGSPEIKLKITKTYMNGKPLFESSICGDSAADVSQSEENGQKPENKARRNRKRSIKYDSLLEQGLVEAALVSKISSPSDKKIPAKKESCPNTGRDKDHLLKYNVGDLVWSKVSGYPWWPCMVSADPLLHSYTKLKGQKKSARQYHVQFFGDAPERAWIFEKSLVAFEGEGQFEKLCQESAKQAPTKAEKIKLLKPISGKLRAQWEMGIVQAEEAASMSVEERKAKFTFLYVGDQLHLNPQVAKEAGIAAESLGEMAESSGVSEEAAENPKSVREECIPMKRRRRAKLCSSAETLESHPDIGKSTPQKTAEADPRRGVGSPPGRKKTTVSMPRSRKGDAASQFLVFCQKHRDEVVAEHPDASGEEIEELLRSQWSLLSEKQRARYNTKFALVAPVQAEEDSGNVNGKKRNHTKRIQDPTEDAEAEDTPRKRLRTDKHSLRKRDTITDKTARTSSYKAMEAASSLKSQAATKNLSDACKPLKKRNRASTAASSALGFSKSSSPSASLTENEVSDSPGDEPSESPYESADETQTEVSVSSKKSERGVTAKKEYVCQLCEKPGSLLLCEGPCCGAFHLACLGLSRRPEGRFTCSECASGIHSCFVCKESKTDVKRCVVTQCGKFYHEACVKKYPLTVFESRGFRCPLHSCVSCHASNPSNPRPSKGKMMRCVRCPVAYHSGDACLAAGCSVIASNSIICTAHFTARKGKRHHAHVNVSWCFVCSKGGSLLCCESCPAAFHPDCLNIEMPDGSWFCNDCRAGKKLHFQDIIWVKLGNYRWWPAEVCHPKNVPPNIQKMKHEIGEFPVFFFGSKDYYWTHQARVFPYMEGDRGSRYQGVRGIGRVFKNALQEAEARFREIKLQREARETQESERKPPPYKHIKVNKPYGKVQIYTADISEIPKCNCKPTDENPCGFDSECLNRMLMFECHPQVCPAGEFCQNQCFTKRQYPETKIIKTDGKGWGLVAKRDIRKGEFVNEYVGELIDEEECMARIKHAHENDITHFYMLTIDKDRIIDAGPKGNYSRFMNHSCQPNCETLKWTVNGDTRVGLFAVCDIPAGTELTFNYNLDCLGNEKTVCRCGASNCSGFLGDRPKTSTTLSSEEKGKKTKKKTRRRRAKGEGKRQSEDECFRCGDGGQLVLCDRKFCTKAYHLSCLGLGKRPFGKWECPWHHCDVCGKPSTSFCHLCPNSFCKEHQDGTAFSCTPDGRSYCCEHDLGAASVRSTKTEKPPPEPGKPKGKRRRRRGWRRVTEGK

`COc1cc(F)c(-c2ncc(N3CCC[C@](N)([C@H](O)C(F)F)C3)c(Cn3cnc4c(N)ncnc43)c2F)cc1F` [Example 149, (S)-1-((R)-3-amino-1-(4-((6-amino-9H-purin-9-yl)methyl)-6-(2,5-difluoro-4-methoxyphenyl)-5-fluoropyridin-3-yl)piperidin-3-yl)-2,2-difluoroethan-1-ol] and `Cc1cc(C(F)F)ccc1-c1cc(Cn2cnc3c(N)ncnc32)c(N2CCC[C@](N)([C@H](O)C(F)F)C2)cn1` [Example 140, (S)-1-((R)-3-amino-1-(4-((6-amino-9H-purin-9-yl)methyl)-6-(4-(difluoromethyl)-2-methylphenyl)pyridin-3-yl)piperidin-3-yl)-2,2-difluoroethan-1-ol] fall in the same range of IC50: 0.01 to 1 µM for the first, 0.01 to 1 µM for the second.

Compared with `CC1CCCN1C(=O)C1(N)CCCN(c2cnc(-c3ccc(F)c(F)c3)cc2Cn2cnc3c(N)ncnc32)C1` (centres unmarked) [Example 88, (3-amino-1-(4-((6-amino-9H-purin-9-yl)methyl)-6-(3,4-difluorophenyl)pyridin-3-yl)piperidin-3-yl)(2-methylpyrrolidin-1-yl)methanone], `Nc1ncnc2c1ncn2Cc1cc(-c2ccc(F)c(F)c2)ncc1N1CCCC(N)(C(=O)C2CCOC2)C1` (centres unmarked) [Example 111, (3-amino-1-(4-((6-amino-9H-purin-9-yl)methyl)-6-(3,4-difluorophenyl)pyridin-3-yl)piperidin-3-yl)(tetrahydrofuran-3-yl)methanone] is higher in IC50: 0.01 to 1 µM for the first, greater than 1 µM for the second.

Compared with `N#CCC1(N)CCCN(c2cnc(-c3ccc(F)c(F)c3)cc2Cn2cnc3c(N)ncnc32)C1` (centres unmarked) [Example 77, 2-(3-amino-1-(4-((6-amino-9H-purin-9-yl)methyl)-6-(3,4-difluorophenyl)pyridin-3-yl)piperidin-3-yl)acetonitrile], `COCCC1(N)CCCN(c2cnc(-c3ccc(F)c(F)c3)cc2Cn2cnc3c(N)ncnc32)C1` (centres unmarked) [Example 60, 9-((5-(3-amino-3-(2-methoxyethyl)piperidin-1-yl)-2-(3,4-difluorophenyl)pyridin-4-yl)methyl)-9H-purin-6-amine] is lower in IC50: greater than 1 µM for the first, 0.01 to 1 µM for the second.

`N#CC1CCN(c2cnc(-c3ccc(F)c(F)c3)cc2Cn2cnc3c(N)ncnc32)CC1N` (centres unmarked) [Example 18, 3-amino-1-(4-((6-amino-9H-purin-9-yl)methyl)-6-(3,4-difluorophenyl)pyridin-3-yl)piperidine-4-carbonitrile] and `CC1(C(=O)C2(N)CCCN(c3cnc(-c4ccc(F)c(F)c4)cc3Cn3cnc4c(N)ncnc43)C2)COC1` (centres unmarked) [Example 112, (3-amino-1-(4-((6-amino-9H-purin-9-yl)methyl)-6-(3,4-difluorophenyl)pyridin-3-yl)piperidin-3-yl)(3-methyloxetan-3-yl)methanone] cannot be ordered by IC50: greater than 1 µM for the first, greater than 1 µM for the second.

First: Nc1ncnc2c1ncn2Cc1cc(-c2ccc(F)c(F)c2)ncc1N1CCC[C@](N)(C(=O)NC2CCOCC2)C1 [Example 82, (R)-3-amino-1-(4-((6-amino-9H-purin-9-yl)methyl)-6-(3,4-difluorophenyl)pyridin-3-yl)-N-(tetrahydro-2H-pyran-4-yl)piperidine-3-carboxamide]
Second: COc1ccc(-c2cc(Cn3cnc4c(N)ncnc43)c(N3CCC[C@](N)(COC4CC4)C3)cn2)cc1F [Example 31, (R)-9-((5-(3-amino-3-(cyclopropoxymethyl)piperidin-1-yl)-2-(3-fluoro-4-methoxyphenyl)pyridin-4-yl)methyl)-9H-purin-6-amine]
The IC50 of the first is higher: 0.01 to 1 µM for the first, 0.001 to 0.01 µM for the second. The second is the more potent here.

`Nc1ncnc2c1ncn2Cc1cc(-c2ccc(CNC(=O)CCl)cc2)ncc1N1CCCC(N)(CC(F)F)C1` (centres unmarked) [Example 75, N-(4-(5-(3-amino-3-(2,2-difluoroethyl)piperidin-1-yl)-4-((6-amino-9H-purin-9-yl)methyl)pyridin-2-yl)benzyl)-2-chloroacetamide] was tested, and the IC50 was 0.01 to 1 µM.

Same assay, conditions: read-out: NSD2 IC50

`Nc1ncnc2c1ncn2Cc1cc(-c2ccc(F)c(F)c2)ncc1N1CCC(O)C(N)(CC(F)F)C1` (centres unmarked) [Example 301, 3-amino-1-(4-((6-amino-9H-purin-9-yl)methyl)-6-(3,4-difluorophenyl)pyridin-3-yl)-3-(2,2-difluoroethyl)piperidin-4-ol] and `Nc1ncnc2c1ncn2Cc1cc(-c2ccc(F)c(F)c2)ncc1N1CCC[C@@H](N)[C@H]1COCC(F)F` [Example 313, 9-((5-((2S,3R)-3-amino-2-((2,2-difluoroethoxy)methyl)piperidin-1-yl)-2-(3,4-difluorophenyl)pyridin-4-yl)methyl)-9H-purin-6-amine] fall in the same range of IC50: 0.01 to 1 µM for the first, 0.01 to 1 µM for the second.

First: CC(O)c1ccc([C@@]2(N)CCCN(c3cnc(-c4ccc(F)c(F)c4)cc3Cn3cnc4c(N)ncnc43)C2)nc1F (stereo partly drawn) [Example 215, 1-(6-((R)-3-amino-1-(4-((6-amino-9H-purin-9-yl)methyl)-6-(3,4-difluorophenyl)pyridin-3-yl)piperidin-3-yl)-2-fluoropyridin-3-yl)ethan-1-ol]
Second: Nc1ncnc2c1ncn2Cc1cc(-c2ccc(F)c(F)c2)ncc1N1CCCC(N)(c2ccc(Cl)nn2)C1 (centres unmarked) [Example 249, 9-((5-(3-amino-3-(6-chloropyridazin-3-yl)piperidin-1-yl)-2-(3,4-difluorophenyl)pyridin-4-yl)methyl)-9H-purin-6-amine]
The IC50 of the first is higher: 0.01 to 1 µM for the first, 0.001 to 0.01 µM for the second. The second is the more potent here.

`NC(=O)C[C@@H]1[C@H](N)CCCN1c1cnc(-c2ccc(F)c(F)c2)cc1Cn1cnc2c(N)ncnc21` [Example 320, 2-((2R,3R)-3-amino-1-(4-((6-amino-9H-purin-9-yl)methyl)-6-(3,4-difluorophenyl)pyridin-3-yl)piperidin-2-yl)acetamide] and `NC(=O)[C@@H]1[C@H](N)CCCN1c1cnc(-c2ccc(F)c(F)c2)cc1Cn1cnc2c(N)ncnc21` [Example 318, (2S,3R)-3-amino-1-(4-((6-amino-9H-purin-9-yl)methyl)-6-(3,4-difluorophenyl)pyridin-3-yl)piperidine-2-carboxamide] cannot be ordered by IC50: greater than 1 µM for the first, greater than 1 µM for the second.

`Nc1ncnc2c1ncn2Cc1cc(C2CC2)ncc1N1CCC[C@](N)(c2cccc(Cl)n2)C1` [Example 204, (R)-9-((5-(3-amino-3-(6-chloropyridin-2-yl)piperidin-1-yl)-2-cyclopropylpyridin-4-yl)methyl)-9H-purin-6-amine] and `Nc1ncnc2c1ncn2Cc1cc(-c2ccc3c(c2)CCO3)ncc1N1CCC[C@](N)(c2cccc(Cl)n2)C1` [Example 185, (R)-9-((5-(3-amino-3-(6-chloropyridin-2-yl)piperidin-1-yl)-2-(2,3-dihydrobenzofuran-5-yl)pyridin-4-yl)methyl)-9H-purin-6-amine] fall in the same range of IC50: 0.01 to 1 µM for the first, 0.01 to 1 µM for the second.

`CN(C)C(=O)[C@@H]1[C@H](N)CCCN1c1cnc(-c2ccc(F)c(F)c2)cc1Cn1cnc2c(N)ncnc21` [Example 317, (2S,3R)-3-amino-1-(4-((6-amino-9H-purin-9-yl)methyl)-6-(3,4-difluorophenyl)pyridin-3-yl)-N,N-dimethylpiperidine-2-carboxamide] and `Nc1ncnc2c1ncn2Cc1cc(-c2ccc(F)c(F)c2)ncc1N1CCC[C@@H](N)[C@H]1C(=O)O` [Example 319] cannot be ordered by IC50: greater than 1 µM for the first, greater than 1 µM for the second.

`Nc1ncnc2c1ncn2Cc1cc(-c2ccc3ccnn3c2)ncc1N1CCCC(N)(c2cccc(Cl)n2)C1` (centres unmarked) [Example 222, 9-((5-(3-amino-3-(6-chloropyridin-2-yl)piperidin-1-yl)-2-(pyrazolo[1,5-a]pyridin-6-yl)pyridin-4-yl)methyl)-9H-purin-6-amine] and `COc1ccc(-c2cc(Cn3cnc4c(N)ncnc43)c(N3CCC[C@](N)(c4ccc(F)c(C)n4)C3)cn2)cc1F` [Example 207, (R)-9-((5-(3-amino-3-(5-fluoro-6-methylpyridin-2-yl)piperidin-1-yl)-2-(3-fluoro-4-methoxyphenyl)pyridin-4-yl)methyl)-9H-purin-6-amine] fall in the same range of IC50: 0.01 to 1 µM for the first, 0.01 to 1 µM for the second.

First: Nc1ncnc2c1ncn2Cc1cc(-c2ccc(F)c(F)c2)ncc1N1CCC[C@]2(COC(=O)N2)C1 [Example 292, (R)-7-(4-((6-amino-9H-purin-9-yl)methyl)-6-(3,4-difluorophenyl)pyridin-3-yl)-3-oxa-1,7-diazaspiro[4.5]decan-2-one]
Second: Nc1ncnc2c1ncn2Cc1cc(-c2ccc(F)c(F)c2)ncc1N1C[C@H](N)CCC1=O [Example 325, (R)-5-amino-1-(4-((6-amino-9H-purin-9-yl)methyl)-6-(3,4-difluorophenyl)pyridin-3-yl)piperidin-2-one]
The IC50 of the first is lower: 0.01 to 1 µM for the first, greater than 1 µM for the second. The first is the more potent here.

`Nc1ncnc2c1ncn2Cc1cc(-c2ccc(F)c(F)c2)ncc1N1C[C@H](N)C[C@H](F)C1` [Example 309, 9-((5-((3R,5S)-3-amino-5-fluoropiperidin-1-yl)-2-(3,4-difluorophenyl)pyridin-4-yl)methyl)-9H-purin-6-amine] showed an IC50 of 0.01 to 1 µM.
